Assay results reported in PMC8788362, “Rational design and synthesis of 2-(1H-indazol-6-yl)-1H-benzo[d]imidazole derivatives as inhibitors targeting FMS-like tyrosine kinase 3 (FLT3) and its mutants” (Journal of Enzyme Inhibition and Medicinal Chemistry, 2022).
Numbering of substitutions follows the chain as printed. Read-outs that look alike come from different tables or passages of the source.

What was measured:
FLT3 wild type = molecular target: T1, FLT3 wild type (Homo sapiens, UniProt P36888); experiment: Reaction Biology Kinase HotSpot radiometric kinase assay; assay type: biochemical; settings: ATP 10 µM
T1 construct: purchased Reaction Biology Corp. (Kinase HotSpot service)
T1 sequence (P36888 27-993): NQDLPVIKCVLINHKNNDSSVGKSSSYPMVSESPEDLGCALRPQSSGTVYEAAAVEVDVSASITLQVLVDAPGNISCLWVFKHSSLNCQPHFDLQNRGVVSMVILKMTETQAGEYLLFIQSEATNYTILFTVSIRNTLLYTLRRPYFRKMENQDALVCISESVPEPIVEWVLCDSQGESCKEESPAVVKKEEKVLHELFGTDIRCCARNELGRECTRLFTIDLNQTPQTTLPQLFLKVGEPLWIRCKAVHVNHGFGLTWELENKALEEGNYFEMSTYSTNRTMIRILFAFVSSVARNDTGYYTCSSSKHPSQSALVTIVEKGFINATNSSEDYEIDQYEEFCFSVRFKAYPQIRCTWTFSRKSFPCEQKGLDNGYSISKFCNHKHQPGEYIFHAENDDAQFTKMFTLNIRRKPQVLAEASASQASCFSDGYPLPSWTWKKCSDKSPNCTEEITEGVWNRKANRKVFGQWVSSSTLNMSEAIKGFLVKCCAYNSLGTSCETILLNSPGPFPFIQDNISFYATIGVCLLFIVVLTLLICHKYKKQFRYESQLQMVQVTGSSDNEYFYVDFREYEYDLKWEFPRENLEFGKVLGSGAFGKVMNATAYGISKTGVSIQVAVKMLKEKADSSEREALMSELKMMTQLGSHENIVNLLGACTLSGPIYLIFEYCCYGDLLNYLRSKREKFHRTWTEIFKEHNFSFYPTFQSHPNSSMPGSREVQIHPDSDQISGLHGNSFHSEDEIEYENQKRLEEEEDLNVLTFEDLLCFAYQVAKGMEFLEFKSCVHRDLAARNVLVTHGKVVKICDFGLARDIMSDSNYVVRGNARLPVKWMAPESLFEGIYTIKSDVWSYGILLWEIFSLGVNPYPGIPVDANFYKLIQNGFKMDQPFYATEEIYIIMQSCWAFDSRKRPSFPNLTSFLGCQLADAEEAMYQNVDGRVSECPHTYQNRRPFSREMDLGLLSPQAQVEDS
Excerpt: (§1) (specific activity approx. 500 cpm/pmol, concentration as required).

FLT3 (D835Y) = molecular target: T2, FLT3 (D835Y) (Homo sapiens, UniProt P36888, D835Y); experiment: as above; assay type: biochemical
T2 construct: purchased Reaction Biology Corp. (Kinase HotSpot service)
T2 sequence (P36888 27-993 D835Y): T1 sequence (P36888 27-993) with D809Y
Excerpt: as §1

SMILES | melting point [°C] | IC50 (FLT3 wild type; read-out: FLT3 IC50) [nM] | IC50 (FLT3 (D835Y)) [nM] | IC50 (FLT3 wild type; read-out: FLT3 wild type IC50) [nM]
CC(C)(C)c1cc(C(=O)Nc2ccc3[nH]c(-c4ccc5cn[nH]c5c4)nc3c2)no1 [8h, N-(2-(1H-Indazol-6-yl)-1H-benzo[d]imidazol-5-yl)-5-(tert-butyl)isoxazole-3-carboxamide] | 147 to 149 | 702 | 82 | 
O=C(Nc1ccc(Cl)c(Cl)c1)Nc1ccc2[nH]c(-c3ccc4cn[nH]c4c3)nc2c1 [8m, 1–(2-(1H-Indazol-6-yl)-1H-benzo[d]imidazol-5-yl)-3–(3,4-dichlorophenyl)urea] | 144 to 146 | 3580 | 1010 | 
CN(C)C1CCN(c2cc(C(=O)Nc3ccc4[nH]c(-c5ccc6cn[nH]c6c5)nc4c3)cc(C(F)(F)F)c2)C1 (stereo not shown) [8n, N-(2-(1H-Indazol-6-yl)-1H-benzo[d]imidazol-5-yl)-3–(3-(dimethylamino)pyrrolidin-1-yl)-5-(trifluoromethyl)benzamide] | 283 to 285 | 287 | 113 | 
CN1CCN(c2ccc(C(=O)Nc3ccc4[nH]c(-c5ccc6cn[nH]c6c5)nc4c3)cc2C(F)(F)F)CC1 [8e, N-(2-(1H-Indazol-6-yl)-1H-benzo[d]imidazol-5-yl)-4–(4-methylpiperazin-1-yl)-3-(trifluoromethyl)benzamide] | 160 to 161 | 154 | 44 | 
O=C(Nc1ccc2[nH]c(-c3ccc4cn[nH]c4c3)nc2c1)c1ccc(N2CCOCC2)c(C(F)(F)F)c1 [8f, N-(2-(1H-Indazol-6-yl)-1H-benzo[d]imidazol-5-yl)-4-morpholino-3-(trifluoromethyl)benzamide] | 202 to 204 | 2510 | 370 | 
O=C(Nc1ccc2[nH]c(-c3ccc4cn[nH]c4c3)nc2c1)c1cc(N2CCN(C3CC3)CC2)cc(C(F)(F)F)c1 [8p, N-(2-(1H-Indazol-6-yl)-1H-benzo[d]imidazol-5-yl)-3–(4-cyclopropylpiperazin-1-yl)-5-(trifluoromethyl)benzamide] | 154 to 156 | 409 | 131 | 
CC(C)(C)c1cc(NC(=O)Nc2ccc3[nH]c(-c4ccc5cn[nH]c5c4)nc3c2)no1 [8l, 1–(2-(1H-Indazol-6-yl)-1H-benzo[d]imidazol-5-yl)-3–(5-(tert-butyl)isoxazol-3-yl)urea] | 184 to 186 | 1170 | 261 | 
CCN(CC)C1CCN(c2cc(C(=O)Nc3ccc4[nH]c(-c5ccc6cn[nH]c6c5)nc4c3)cc(C(F)(F)F)c2)C1 (stereo not shown) [8o, N-(2-(1H-Indazol-6-yl)-1H-benzo[d]imidazol-5-yl)-3–(3-(diethylamino)pyrrolidin-1-yl)-5-(trifluoromethyl)benzamide] | 221 to 223 | 841 | 120 | 
COc1ccc(/C=C/C(=O)Nc2ccc3[nH]c(-c4ccc5cn[nH]c5c4)nc3c2)cc1 [8k, (E)-N-(2-(1H-Indazol-6-yl)-1H-benzo[d]imidazol-5-yl)-3–(4-methoxyphenyl)acrylamide] | 206 to 208 | 761 | 191 | 
O=C(Nc1ccc2[nH]c(-c3ccc4cn[nH]c4c3)nc2c1)c1cc(CN2CCN(C3CC3)CC2)cc(C(F)(F)F)c1 [8q, N-(2-(1H-Indazol-6-yl)-1H-benzo[d]imidazol-5-yl)-3-((4-cyclopropylpiperazin-1-yl)methyl)-5-(trifluoromethyl)benzamide] | 150 to 152 | 525 | 174 | 
O=C(Nc1ccc2[nH]c(-c3ccc4cn[nH]c4c3)nc2c1)c1ccc(Cl)c(C(F)(F)F)c1 [8i, N-(2-(1H-Indazol-6-yl)-1H-benzo[d]imidazol-5-yl)-4-chloro-3-(trifluoromethyl)benzamide] | 215 to 217 | 676 | 84 | 
Cc1cn(-c2cc(C(=O)Nc3ccc4[nH]c(-c5ccc6cn[nH]c6c5)nc4c3)cc(C(F)(F)F)c2)cn1 [8b, N-(2-(1H-Indazol-6-yl)-1H-benzo[d]imidazol-5-yl)-3–(4-methyl-1H-imidazol-1-yl)-5-(trifluoromethyl)benzamide] | 239 to 241 | 639 | 110 | 
CN1CCC(Oc2ccc(C(=O)Nc3ccc4[nH]c(-c5ccc6cn[nH]c6c5)nc4c3)cc2C(F)(F)F)CC1 [8x, N-(2-(1H-Indazol-6-yl)-1H-benzo[d]imidazol-5-yl)-4-((1-methylpiperidin-4-yl)oxy)-3-(trifluoromethyl)benzamide] | 293 to 295 | 743 | 145 | 
CCN1CCN(c2cc(C(=O)Nc3ccc4[nH]c(-c5ccc6cn[nH]c6c5)nc4c3)cc(C(F)(F)F)c2)CC1(C)C [8z, N-(2-(1H-Indazol-6-yl)-1H-benzo[d]imidazol-5-yl)-3–(4-ethyl-3,3-dimethylpiperazin-1-yl)-5-(trifluoromethyl)benzamide] | 153 to 154 | 66 | 46 | 65.9
O=C(Nc1ccc2[nH]c(-c3ccc4cn[nH]c4c3)nc2c1)c1cnn(-c2ccccc2)c1C(F)(F)F [8g, N-(2-(1H-Indazol-6-yl)-1H-benzo[d]imidazol-5-yl)-1-phenyl-5-(trifluoromethyl)-1H-pyrazole-4-carboxamide] | 258 to 260 | 1100 | 63 | 
CN1CCN(c2cc(C(=O)Nc3ccc4[nH]c(-c5ccc6cn[nH]c6c5)nc4c3)cc(C(F)(F)F)c2)CC1 [8a, N-(2-(1H-Indazol-6-yl)-1H-benzo[d]imidazol-5-yl)-3–(4-methylpiperazin-1-yl)-5-(trifluoromethyl)benzamide] | 228 to 230 | 181 | 21 | 
CN1CCC(Nc2cc(C(=O)Nc3ccc4[nH]c(-c5ccc6cn[nH]c6c5)nc4c3)cc(C(F)(F)F)c2)CC1 [8s, N-(2-(1H-Indazol-6-yl)-1H-benzo[d]imidazol-5-yl)-3-((1-methylpiperidin-4-yl)amino)-5-(trifluoromethyl)benzamide] | 175 to 177 | 158 | 25 | 
O=C(Nc1ccc2[nH]c(-c3ccc4cn[nH]c4c3)nc2c1)c1cc(N2CCOCC2)cc(C(F)(F)F)c1 [8d, N-(2-(1H-Indazol-6-yl)-1H-benzo[d]imidazol-5-yl)-3-morpholino-5-(trifluoromethyl)benzamide] | 195 to 196 | 1030 | 151 | 
CN1CCC(Oc2cc(C(=O)Nc3ccc4[nH]c(-c5ccc6cn[nH]c6c5)nc4c3)cc(C(F)(F)F)c2)CC1 [8u, N-(2-(1H-Indazol-6-yl)-1H-benzo[d]imidazol-5-yl)-3-((1-methylpiperidin-4-yl)oxy)-5-(trifluoromethyl)benzamide] | 293 to 295 | 289 | 55 | 
Cc1nccn1-c1cc(C(=O)Nc2ccc3[nH]c(-c4ccc5cn[nH]c5c4)nc3c2)cc(C(F)(F)F)c1 [8c, N-(2-(1H-Indazol-6-yl)-1H-benzo[d]imidazol-5-yl)-3–(2-methyl-1H-imidazol-1-yl)-5-(trifluoromethyl)benzamide] | 251 to 253 | 470 | 108 | 
